Test results reported in patent US10696946B2, “T-REG cell expansion” (The Board of Trustees of the University of Illinois, priority 2013, dated 2020).
Where two headings read alike, the source gives them in different places.

What was measured:
[1] = system: Foxp3; assay: Pathway inhibitors on OX40L, JAG1 and IL-2-induced Foxp3 expression (RT-qPCR, Western blot); type: cell-based, mouse; conditions: at 24 h
Experimental: CD4+ T-cells (1×10^6 cells/ml) were treated with soluble OX40 L, JAG1 and IL-2 as mentioned above. In some experiments cells were pre-treated with inhibitors of Notch (GSI-R04929097, Selleckchem), NF-κ B (BAY-11-7082, Sigma-Aldrich) and STAT5 (CAS 285986-31-4, Calbiochem) signaling for 2 h and co-treated with soluble ligands for different time intervals. Cells were washed with PBS, and lysed in Laemmli buffer (Biorad) and resolved in 10% SDS-PAGE gels. Proteins were transferred to PVDF membranes (Biorad), blocked with 5% skimmed milk and incubated with primary anti-mouse Foxp3 (1:1000, ebioscience), anti-mouse phospho p65 (Ser536) and phospho STAT5 (Tyr694) (1:500, Cell Signaling Technology) antibodies. Blots were then washed, incubated with secondary anti-rabbit IgG-HRP and developed using ECL detection kit (Pierce Scientific). […] Foxp3, pp65 and pSTAT5 signal intensities were normalized to β-actin, total p65 and STAT5 signal intensities and expressed as fold change over respective controls.
For some experiments, resting and proliferating Tregs were sorted based on cell trace violet dilution. […] Gene expression values were calculated by comparative Δ Ct method after normalization to GAPDH internal control and expressed as fold change over respective controls. […] Data were analyzed using the R-package software. […]

[2] = system: Treg cell proliferation; assay: Pathway inhibitors on OX40L, JAG1 and IL-2-induced Treg proliferation (flow cytometry); type: cell-based, mouse; conditions: CD4+ T-cells from NOD mice pre-treated with inhibitor
Experimental: FIG. 21. Role of NF-κB and STAT5 signaling pathways in OX40L-JAG1-IL-2 induced Treg proliferation and Foxp3 expression. (A) CD4+ T-cells from NOD mice were pre-treated with pharmacological inhibitors of indicated cell signaling pathways and treated with soluble OX40L-JAG1-IL-2. Effect of these pathway inhibitors on Treg cell proliferation was measured by flow cytometry analysis. (B) RT-qPCR analysis showing effect of inhibitors of NF-κB and STAT5 signaling pathways on Foxp3 mRNA expression (Values represent Mean±SEM, n=3, *p<0.05, **p<0.01, ***p<0.001 Vs control, ^#p<0.05, ^##p<0.01 Vs None-OX40L-JAG1-IL-2). (C) Western blot analysis showing effect of inhibitors of NF-κ B and STAT5 signaling pathways on Foxp3 protein expression. Western blot analysis of the time dependent effect of soluble OX40L-JAG1-IL-2 on (D) Foxp3 expression, (E) NF-κ B p65 phosphorylation and (F) STAT5 phosphorylation in CD4+ T-cells. […]
CD4+ T-cells (1×10^6 cells/ml) were treated with soluble OX40 L, JAG1 and IL-2 as mentioned above. […] Foxp3, pp65 and pSTAT5 signal intensities were normalized to β-actin, total p65 and STAT5 signal intensities and expressed as fold change over respective controls.

[3] = system: Notch signaling; assay: GSI-treated CD4+ T-cells from NOD mice co-cultured with G-BMDCs, proliferation by flow cytometry; type: cell-based, mouse; conditions: indicated concentrations, 5 days with G-BMDCs
Experimental: FIG. 13. […] (A) CD4+ T-cells from NOD mice were treated with γ-secretase inhibitor (GSI)-R042929097 at indicated concentrations and then co-cultured with G-BMDCs for 5 days. Extent of proliferation was measured by flow cytometry (n=3). (B) Notch3-OX40−, […], Notch3-OX40+, Notch3+OX40+ subsets of CD4^+CD25^+ Treg cells sorted out and co-cultured with G-BMDCs for 5 days and extent of proliferation was analyzed (n=2).
Bone marrow cells were cultured in complete RPMI medium containing 10% heat-inactivated FBS in the presence of 20 ng/ml GM-CSF for 3 days. On days 4 and 6, fresh medium containing 20 ng/ml GM-CSF was added. Non-adherent CD11c^+ DCs from eight day old cultures were enriched using anti-CD11c coated magnetic beads according to the manufacturer's directions (Miltenyi Biotech, Auburn, Calif.). Specific sub-populations of GM-BMDCs and CD4+CD25+ T-cells were sorted using a MoFlo flow cytometer (Beckman/Coulter, Ranch Cucamonga, Calif.) following staining with appropriate antibodies (OX40L, Jagged-1, CD4, CD25). To obtain GFP+ and GFP− cells, total CD4+ cells were first separated using CD4 microbeads (Miltenyi Biotech) and then the cells were sorted based on GFP expression using a MoFlo flow cytometer (Beckman/Coulter). […]

[4] = system: Foxp3+ Tregs; assay: GM-BMDC / CD4+ T-cell co-culture, Treg proliferation by CFSE dilution (FACS); type: cell-based, mouse; conditions: for Treg proliferation: GM-BMDCs alone ~13.2±0.4%
Experimental: Each in vitro experiment was conducted in triplicate with T-cells, SpDCs and GM-BMDCs pooled from 3 mice. GM-BMDCs (5×10^4) and CD11c^+ SpDCs were cultured with CD4^+, CD4^+CD25^− and CD4^+CD25^+ T-cells at a ratio of 1:2 for 5 days. For proliferation assays, T-cell subpopulations were labelled with CFSE at 10 μM according to manufacturer's instruction (Invitrogen, Carlsbad, Calif.) before co-culturing them with DCs. Some cultures were supplemented with IL-2 (10 U/ml) (R&D Systems), antiOX40L (up to 10 μg/ml) antibody, OX40 agonist (OX-86, 5-10 μg/ml), anti-Jagged-1 (10-20 μg/ml) antibody or anti-Notch3 (10-20 μg/ml) antibody. For blocking experiments with anti-OX40L or anti-Jagged-1 antibodies, GM-BMDCs were pre-treated with the indicated antibodies for 30 min at 37° C. and then used in co-culture with naive CD4^+ T-cells. For blocking experiments with anti-Notch3 antibody, CD4+ T-cells isolated from mouse splenocytes were first treated with anti-Notch3 antibody at two different concentrations (10 and 20 μg/ml) or with 20 μg/ml of an anti-Notch 1 antibody, incubated at 37° C. for 30 minutes and then co-cultured with GM-BMDCs/SpDCs for 5 days. Some co-cultures were supplemented with different concentrations of gamma-secretase inhibitors (GSI) S-2188 (5 and 10 μM) or R04929097 (200 nM-5 μM).
Freshly isolated and ex vivo cultured cells were washed with PBS-BSA-EDTA or PBS containing 0.5% BSA. For surface staining, the cells were labelled with one of the following: specified FITC, PE, APC conjugated antibodies for 30 min, anti-CD4-eFluor-780, CD4-FITC (eBioscience), anti-CD25-PE, anti-CTLA4-PE, anti-CD39-PE, anti-Helios-PE, anti-TIGIT-PE or fixed, permeabilized, and stained with anti-, Anti-Ki67-PE, anti-Foxp3-APC and isotype controls antibodies (eBioscience) (1:100) in dark. […] Stained cells were washed three times and analyzed by Cyan flow cytometer (Beckman/Coulter) and data analysis was done using Summit v4.3 software.

[5] = system: NOD mice; conditions: cited from earlier work

Cc1ccc(S(=O)(=O)/C=C/C#N)cc1 [NF-κB inhibitor]
OX40L, JAG1 and IL-2-induced Foxp3 expression [1]: significantly down regulated
OX40L, JAG1 and IL-2-induced Treg proliferation [2]: significantly blocked

CC(C)(C(=O)NCC(F)(F)C(F)(F)F)C(=O)N[C@@H]1C(=O)Nc2ccccc2-c2ccccc21 [R04929097]
inhibition of Notch signaling / Treg proliferation [3]: dose-dependent manner
Treg proliferation ([4]; 250 nM): 5.2±0.4%
Treg proliferation ([4]; 5 μM): 1.7±0.3%
GM-BMDC mediated Treg proliferation ([4]; different concentrations (FIG. 8)): abrogated

O=C(N/N=C/c1coc2ccccc2c1=O)c1cccnc1 [STAT5 inhibitor]
OX40L, JAG1 and IL-2-induced Foxp3 expression [1]: only moderately inhibited
OX40L, JAG1 and IL-2-induced Treg proliferation [2]: significantly blocked

B1: OX40L: tumor necrosis factor superfamily member with co-stimulatory function, binds OX40 (protein, UniProt P23510 1-183, looked up)
Tumor necrosis factor ligand …: MERVQPLEENVGNAARPRFERNKLLLVASVIQGLGLLLCFTYICLHFSALQVSHRYPRIQSIKVQFTEYKKEKGFILTSQKEDEIMKVQNNSVIINCDGFYLISLKGYFSQEVNISLHYQKDEEPLFQLKKVRSVNSLMVASLTYKDKVYLNVTTDNTSLDDFHVNGGELILIHQNPGEFCVL
CD4+CD25+Foxp3+ Treg cells ([5]; 6-week old NOD mice): increase
development of diabetes ([5]; 6-week old NOD mice): protect
development of diabetes ([5]; 12-week old NOD mice): accelerated diabetes development
